{"source": "patent US6291496A", "about": "“Treating cancers associated with overexpression of class I family of receptor tyrosine kinases” (priority 1999, dated 2001)", "key": {"[1]": {"system": "Stage IV EGFR positive breast cancer tumors", "assay": "Example VIII: breast cancer with Stage IV EGFR positive tumors", "type": "in vivo, human", "conditions": "oral 5 mg/kg twice daily in combination with CETUXIMAB and Taxol"}, "[2]": {"system": "head and neck carcinoma where EGFR is overexpressed", "assay": "Example VII: head and neck carcinoma", "type": "in vivo, human", "conditions": "after the 12 weeks of CETUXIMAB and cisplatin, oral 5 mg/kg twice daily for 12 weeks", "protocol": "Concurrently cisplatin is infused every four weeks at 60 mg/m^2."}, "[3]": {"system": "EGFR promoter", "assay": "transient transfection assay, human EGFR promoter construct ligated to luciferase, 184B5 cells", "type": "cell-based", "conditions": "0-25 μM, 24 hours, FIG. 2", "protocol": "To determine whether PPARγ ligands inhibit EGFR promoter activity, a transient transfection assay was performed, 184B5 cells were transfected with 1.8 μg of a human EGFR promoter construct ligated luciferase (-1100/-19) and 0.2 μg pSVβgal (Promega Corp., Madison, Wis.). The EGFR promoter is described in Hudson, L. G., et al, Cell 62, 1165-1175 (1990), the whole of which is incorporated herein by reference. 184B5 cells were seeded at a density of 5×10^4 cells/well in 6-well dishes and grown to 50-60% confluence. For each well 2 μg of […] DNA were introduced into cells using 8 μg of LIPOFECTAMINE (Life Technologies, Inc., Grand Island, N.Y.) as per the manufacturers instructions. Following transfection, the cells were treated with ciglitazone (0, 5, 10, 15, 20 and 25 μM) or 15-d-PGJ2 (0, 5, 10, 15, 20, and 25 μM) for 24 hours. The activities of luciferase and β-galactosidase were measured in cellular extract as described in Mestre, J. R, et al, Cancer Res. 57, 1081-1085 (1997). The results are shown in FIG. 2 where luciferase activity represents data that have been normalized to β-galactosidase activity (columns, means; bars, S. D., n=6; * means p<0.01 compared to control)."}, "[4]": {"system": "HER-2/neu positive breast cancer", "assay": "Example I: adjuvant therapy after mastectomy", "type": "in vivo, human", "conditions": "patient, oral 5 mg/kg twice per day for five years after mastectomy"}, "[5]": {"system": "HER-2/neu in 184B5/HER cells", "assay": "immunoblot for HER-2/neu in 184B5/HER cells", "type": "cell-based, human", "conditions": "25 μM ciglitazone or 20 μM 15-d-PGJ2, 24 hours", "source_text": "The 184B5/HER cell line was obtained from a collaborator and was derived by stably transfecting 184B5 cells with a mutationally activated HER-2/neu oncogene; these cells form rapidly growing tumors when injected into athymic nude mice. The 184B5/HER cell line is described in Pierce, J. H., et al., Oncogene 6, 1189-1194 (1991). The BT-474 cell line is a human breast cancer adenocarcinoma cell line which overexpresses HER-2/neu, and was obtained from the American Type Culture Collection (Manassas, Va.) and bears accession number ATCC HBT-20.\n184B5/HER cells were maintained in MEM-KBM mixed in a ratio of 1:1 (basal medium) containing epidermal growth factor (10 ng/ml), hydrocortisone (0.5 μg/ml), transferrin (10 μg/ml), gentamicin (5 μg/ml) and insulin (10 μg/ml) (growth medium). […] cells were grown to 60% confluence, trypsinized with 0.05% trypsin-2 mM ethylenediaminotetraacetic acid, and plated for experimental use. […]\n184B5/HER cells were treated with vehicle (0.01% dimethylsulfoxide), 25 μM ciglitazone (Biomol, Plymouth Meeting, Pennsylvania) or 20 μM 15-d-PGJ2 (Biomol, Plymouth Meeting, Pennsylvania) for 24 hours. […] The protein concentration of the supernatant was measured by the method of Lowry, O. H., et al, J. Biol. Chem. 193, 265-275 (1951). […]"}, "[6]": {"system": "HER-2/neu mRNA", "assay": "Northern blotting for HER-2/neu mRNA in 184B5/HER cells", "type": "cell-based, human", "conditions": "25 μM ciglitazone or 20 μM 15-d-PGJ2", "protocol": "Northern blotting was performed to evaluate whether PPARγ ligands decrease levels of HER-2/neu mRNA. 184B5/HER cells were treated with vehicle (0.01% dimethyl sulfoxide), 25 μM ciglitazone or 20 μM 15-d-PGJ2. Total cellular RNA was isolated from cell monolayers using an RNA isolation kit from Qiagen Inc. 10 μg of RNA was added to each lane. The 10 μg of total cellular RNA per lane were electrophoresed in a formaldehyde-containing 1.2% agarose gel and transferred to nylon-supported membranes. The blot was hybridized with probes that recognized HER-2/neu mRNA (Santa Cruz Biotechnology, Inc., Santa Cruz, Calif.) and 18S rRNA cDNA (Ambion, Inc., Austin, Tex.)."}, "[7]": {"system": "HER-2/neu positive breast cancer", "assay": "Example II: adjuvant therapy with PPARγ ligand and HERCEPTIN", "type": "in vivo, human", "conditions": "patient, oral 5 mg/kg twice daily for one year, with HERCEPTIN 250 mg IV loading then 10 weekly doses of 125 mg"}, "[8]": {"system": "HER-2/neu positive breast cancer metastasized to bone", "assay": "Example IV: breast cancer metastasized to bone", "type": "in vivo, human", "conditions": "patient after failure of prior chemotherapy, oral 5 mg/kg twice daily plus HERCEPTIN", "protocol": "After 90 days, oral cyclophosphamide at a dose of 3 mg/kg/day and doxorubicin administered intravenously weekly at a dose of 20 mg/m^2, are added to the drug regimen."}, "[9]": {"system": "HER-2/neu positive breast cancer metastasized to lung and liver", "assay": "Example III: breast cancer metastasized to lung and liver", "type": "in vivo, human", "conditions": "patient, oral 5 mg/kg twice daily", "protocol": "After three months, the PPARγ ligand administration is continued in combination regimen with Taxol® at a dose of 175 mg/m^2 administered intravenously every three weeks."}, "[10]": {"system": "EGFR positive breast cancer", "assay": "Example IX: adjuvant therapy after mastectomy", "type": "in vivo, human", "conditions": "patient, oral 5 mg/kg twice daily for five years after mastectomy"}, "[11]": {"system": "EGFR transcription", "assay": "nuclear run-off assay of EGFR transcription in 184B5 cells", "type": "cell-based, human", "conditions": "ciglitazone 5, 10, 25 μM, 24 hours", "protocol": "To determine whether PPARγ ligands inhibit the transcription of EGFR, a nuclear run-off assay was carried out. 184B5 cells were treated with vehicle (0.01% dimethyl sulfoxide) or ciglitazone (5, 10, 25 μM) for 24 hours. 2.5×10^5 cells were plated in four T150 dishes for each condition. Cells were grown in growth medium until 60% confluent. Nuclei were isolated and stored in liquid nitrogen. The EGFR and 18S rRNA cDNAs were immobilized onto a nitrocellulose membrane (Schleicher & Schuell, Keene, N.H.) and prehybridized overnight in hybridization buffer."}}}
{"compound": "CC1(COc2ccc(CC3SC(=O)NC3=O)cc2)CCCCC1", "note": "(centres unmarked) [ciglitazone]", "values": [{"measurement": "tumor burden", "setting": "[1]", "value": "reduced tumor burden"}, {"measurement": "tumor burden", "setting": "[2]", "value": "further reduced tumor burden"}, {"measurement": "EGFR promoter activity (luciferase normalized to β-galactosidase)", "setting": "[3]", "value": "inhibited EGFR promoter activity in a dose-dependent fashion"}, {"measurement": "recurrence of breast cancer", "setting": "[4]", "value": "Recurrence of breast cancer does not occur"}, {"measurement": "amount of HER-2/neu (immunoblot)", "setting": "[5]", "value": "decreased the amount of HER-2/neu"}, {"measurement": "amounts of HER-2/neu mRNA (Northern blot)", "setting": "[6]", "value": "decrease amounts of HER-2/neu mRNA"}, {"measurement": "recurrence of breast cancer", "setting": "[7]", "value": "Recurrence of breast cancer does not occur"}, {"measurement": "tumor burden", "setting": "[8]", "value": "reduced tumor burden"}, {"measurement": "tumor burden", "setting": "[9]", "value": "reduced tumor burden"}, {"measurement": "recurrence of breast cancer", "setting": "[10]", "value": "Recurrence of breast cancer dose not occur"}, {"measurement": "EGFR transcription (nuclear run-off)", "setting": "[11]", "value": "dose-dependent suppression of EGFR transcription"}]}
